# In patent publication US20200352886A1 (priority 2009, published 2020):
# Columns and labels:
# Gottingen Minipigs = settings: minipig, in vivo
# Experimental: The broad aim of the study was to evaluate the potential dermal toxicity of DMSO when administered topically to four groups of Gottingen Minipigs® for 52 weeks at concentrations of 0, 9%, 45.5% and 90% (w/w) and to evaluate reversibility, progression, or delayed appearance of any observed changes following a 1-month postdose observation period. Two additional groups of Gottingen Minipigs® were dosed topically for 39 weeks at 0% and 90% followed by a 4-month recovery post dose observation period.
# Four groups consisting of six animals/sex/group received DMSO at respective dose levels of 0, 9, 45.5, or 90% (w/w) by dermal application three times a day for 364 consecutive days. Following 52 weeks of administration, two animals/sex at 0, 9, 45.5, and 90% dose levels were maintained for a 4-week recovery period. Two additional groups consisting of six animals/sex/group received the control or 90% (w/w) DMSO by dermal application three times a day for 273 consecutive days. Following 39 weeks of administration, two animals/sex at 0 and 90% dose levels were maintained for a 4 month recovery period. […]
# Clinical observations were conducted weekly. At the end of the each treatment and recovery period, necropsy examinations were performed, organ weights were recorded, and selected tissues were microscopically examined. […]
# Sprague-Dawley rats = settings: rat, in vivo
# [1] = test system: subjects with primary osteoarthritis of the knee; assay: 12-week randomized controlled trial: safety (adverse events, laboratory parameters, ocular examination); assay type: in vivo, human
# Experimental: Study Design: Eligible subjects were stratified by the investigator at baseline into stratum 1 (no pain and normal radiological examination in the non-study knee) or stratum 2 (pain and/or abnormal radiological examination in the non-study knee), and then randomized into the trial by receiving the next numbered study kit at that clinic for that stratum. […] Subjects applied 40 drops of solution (approximately 1.2 mL) around the entire circumference of the study knee, without massage, 4 times daily, and took one study tablet daily for up to 12 weeks.
# Each subject completed a full efficacy assessment questionnaire after randomization at baseline and at 4, 8 and 12 weeks, or at drop out. […] The POHA asked the question, “Considering all the ways your osteoarthritic (study) knee and its treatment affect you, including both positive and negative effects, how would you rate your overall state of health in the past 48 hours?” Secondary efficacy variables were WOMAC stiffness and patient global assessment (“PGA”) of knee osteoarthritis. The PGA asked the question, “How has the osteoarthritis in your study joint been over the last 48 hours?” The POHA and PGA were scored on a 5-point Likert scale. There was no assessment of the non-treated knee. […] Adverse events were categorized according to Coding Symbols for Thesaurus of Adverse Reaction Terms (“COSTART”). Blood and urine samples were obtained for routine laboratory analysis at baseline, 4 and 12 weeks. Ocular examination (visual acuity test, slit lamp examination and lens assessment) was conducted at the baseline and final visit.
# For a missing final score, last observation was carried forward (“LOCF”). Safety analyses were performed on all subjects who received even one dose of either study medication. There was no imputation of missing safety data.
# [2] = cited from earlier work
# [3] = test system: symptomatic primary osteoarthritis of the knee; assay: 12-week double-blind, double-dummy randomized controlled trial: efficacy (WOMAC, POHA, PGA); assay type: in vivo, human; settings: 12 weeks
# Experimental: This randomized, double-blind, double-dummy, placebo-, vehicle- and active-controlled study was conducted at 40 outpatient centers in Canada and 21 centers in the United States following approval by the appropriate institutional review boards. Eligible subjects, after written informed consent, included men and non-pregnant women aged 40-85 with primary OA of the knee based on (i) standard radiological criteria for OA (Altman, R D, et al., Atlas of individual radiographic features in osteoarthritis. […] J Rheumatol. 1988 December; 15(12):1833-40). All knee films were reviewed by a single radiologist and each compartment was scored (none=1, mild=2, moderate=3, severe=4). Only one knee was treated; where both knees met all entry criteria, the more painful knee (or dominant knee if they scored the same) was selected. Standard exclusion criteria were employed, as described in Roth S H, Shainhouse J Z. Efficacy and safety of a topical diclofenac solution ([…]®) in the treatment of primary osteoarthritis of the knee: a randomized, double-blind, vehicle-controlled clinical trial. Arch Intern Med. 2004; 164:2017-23. Study Design: […] Each study kit contained topical solution and oral tablets for one of the five treatment regimens: […] Topical Diclofenac Solution plus oral diclofenac tablets. […] Concomitant analgesic and anti-inflammatory medications, including over the counter NSAIDs and other analgesics, were prohibited. Continuation of stable treatment with glucosamine, chondroitin, anti-depressants or a proton pump inhibitor (previous 90 days), or low-dose (<325 mg/day) acetylsalicylic acid (previous 30 days) was permitted. Acetaminophen was provided, and permitted (up to four 325-mg caplets per day) except during the 3 days before each efficacy assessment. Other topical products on the knee, including skin emollients, were prohibited. A patient with a gastrointestinal adverse event was allowed to start a proton pump inhibitor. Compliance with the treatment regimen was assessed by weighing the solution bottles and counting study tablets at each clinic visit. […] of randomized placebo controlled clinical trials. J Rheumatol. 2006; 33:1841-4), and patient overall health assessment (“POHA”). The POHA asked the question, “Considering all the ways your osteoarthritic (study) knee and its treatment affect you, including both positive and negative effects, how would you rate your overall state of health in the past 48 hours?” Secondary efficacy variables were WOMAC stiffness and patient global assessment (“PGA”) of knee osteoarthritis. The PGA asked the question, “How has the osteoarthritis in your study joint been over the last 48 hours?” The POHA and PGA were scored on a 5-point Likert scale. There was no assessment of the non-treated knee. […] Adverse events were categorized according to Coding Symbols for Thesaurus of Adverse Reaction Terms (“[…]”). Blood and urine samples were obtained for routine laboratory analysis at baseline, 4 and 12 weeks. Ocular examination (visual acuity test, slit lamp examination and lens assessment) was conducted at the baseline and final visit. All planned analyses were specified a priori. […] Statistical tests were two-sided at the 5% level of significance. All efficacy analyses were by analysis of covariance of the change in score from baseline to landmark final assessment, with baseline score as the covariate. Subjects in both randomization strata were combined for all analyses. Secondary comparisons included topical diclofenac vs. placebo for the secondary variables, and topical diclofenac vs. DMSO vehicle and DMSO vehicle vs. placebo for all variables. A post hoc efficacy analysis compared topical diclofenac vs. oral diclofenac and topical diclofenac+oral diclofenac vs. oral diclofenac. For a missing final score, last observation was carried forward (“LOCF”). Safety analyses were performed on all subjects who received even one dose of either study medication. There was no imputation of missing safety data. […]
# [4] = clinical trials, combination compared to oral diclofenac alone
# [5] = normal at baseline to above upper limit of normal
# [6] = 50 mg of oral diclofenac TID, label of Voltaren Gel
# [7] = mean (SD), maximum score 4, mITT
smiles,measurement,setting,value
"C[S+](C)[O-] [DMSO, Dimethyl sulfoxide]",ophthalmoscopic abnormalities,Gottingen Minipigs,no test article-related ophthalmoscopic abnormalities of any kind
same,risk for development of lens opacities or refractive index changes,Gottingen Minipigs,no increased risk for development of lens opacities or refractive index changes
same,ophthalmoscopic abnormalities,Sprague-Dawley rats,No test article-related ophthalmoscopic abnormalities
"O=C(O)Cc1ccccc1Nc1c(Cl)cccc1Cl [ODiclo, diclofenac]",Abdominal pain,[1]; 12 weeks,11 (7.3) number (%) of subjects
same,Abnormal taste sensation or odor,[1]; 12 weeks,0 (0.0) number (%) of subjects
same,Any adverse event,[1]; 12 weeks,94 (62.3) number (%) of subjects
same,Any digestive system event,[1]; 12 weeks,36 (23.8) number (%) of subjects
same,Any skin/appendages event,[1]; 12 weeks,11 (7.3) number (%) of subjects
same,Contact dermatitis (application site),[1]; 12 weeks,1 (0.7) number (%) of subjects
same,Contact dermatitis with vesicles (application site),[1]; 12 weeks,1 (0.7) number (%) of subjects
same,Diarrhea,[1]; 12 weeks,7 (4.6) number (%) of subjects
same,Dry skin (application site),[1]; 12 weeks,4 (2.6) number (%) of subjects
same,Dyspepsia,[1]; 12 weeks,6 (4.0) number (%) of subjects
same,Nausea,[1]; 12 weeks,3 (2.0) number (%) of subjects
same,Pruritis (application site),[1]; 12 weeks,0 (0.0) number (%) of subjects
same,Rash,[1]; 12 weeks,0 (0.0) number (%) of subjects
same,Rectal hemorrhage,[1]; 12 weeks,0 (0.0) number (%) of subjects
same,incidence of hypertension,[1]; 12 weeks,1.3%
same,increase in any liver enzyme to three times the upper limit of normal,[1]; 12 weeks,2 subjects
same,Abnormal vision,"[1]; 12 weeks, other system event",4 (2.6) number (%) of subjects
same,Accidental injury,"[1]; 12 weeks, other system event",4 (2.6) number (%) of subjects
same,Arthralgia,"[1]; 12 weeks, other system event",12 (7.9) number (%) of subjects
same,Back pain,"[1]; 12 weeks, other system event",11 (7.3) number (%) of subjects
same,Conjunctivitis,"[1]; 12 weeks, other system event",3 (2.0) number (%) of subjects
same,Headache,"[1]; 12 weeks, other system event",26 (17.2) number (%) of subjects
same,Pain,"[1]; 12 weeks, other system event",8 (5.3) number (%) of subjects
same,Respiratory disorder,"[1]; 12 weeks, other system event",8 (5.3) number (%) of subjects
same,"ALT, mean change","[1]; baseline to final, mean (SD)",7.2 (25.3) U/L
same,"AST, mean change","[1]; baseline to final, mean (SD)",2.5 (10.9) U/L
same,"Creatinine, mean change","[1]; baseline to final, mean (SD)",3.1 (11.0) μmol/L
same,"Hemoglobin, mean change","[1]; baseline to final, mean (SD)",−3.8 (7.1) g/L
same,abnormal creatinine,[1]; [4],7%
same,abnormal hemoglobin,[1]; [4],9%
same,abnormal urea,[1]; [4],12%
same,rate of rectal hemorrhage,"[1]; clinical trials, combination of topical and oral diclofenac compared to oral diclofenac alone",less than 1%
same,"ALT, normal to abnormal",[1]; [5],26 (18.8) N (%)
same,"Creatinine, normal to abnormal",[1]; [5],10 (7.2) N (%)
same,"Hemoglobin, normal to abnormal",[1]; normal at baseline to below lower limit of normal,8 (5.8) N (%)
same,serious adverse events,"[1]; number of events per arm, 12 weeks",1
same,mean AUC0-24,[2]; [6],3890 ng·h/mL
same,mean Cmax,[2]; [6],2270 ng/mL
same,predicted level of diclofenac reported with oral diclofenac,[2]; oral,1500 ng/mL
same,"PGA (patient global assessment of the study knee), change in score",[3]; [7],−1.42 (1.29)
same,"POHA (patient overall health assessment), change in score",[3]; [7],−0.88 (1.31)
same,"WOMAC Stiffness, change in score","[3]; mean (SD), maximum score 8, mITT",−2.07 (2.02)
same,"WOMAC Pain, change in score (final score minus baseline score)","[3]; mean (SD), maximum score 20, mITT",−6.4 (4.1)
same,"WOMAC Physical Function, change in score","[3]; mean (SD), maximum score 68, mITT",−17.5 (14.3)
same,improvement in variable score,[3]; oral diclofenac group,40-48%
